Reference: patent US8293755B2, “Treatment of statin side effects using uridine derivatives” (Magral Pty Ltd., priority 2001, dated 2012)
Values joined by “and” are separate entries in the source; they are usually repeats but may differ in a detail not shown here. Identical values can stand only once.

Legend:
Type in all cases: in vivo, human
statin induced fatigue = experiment: Pilot clinical study: Fatigue Impact Scale (FIS) in statin patients given magnesium orotate; set-up: FIS—Fatigue Impact Scale: scale not given here; settings: for FIS—Fatigue Impact Scale: 1600 mg/day magnesium orotate
From the text: (§1) Table 1 outlines data for seventeen patients (numbered #i-#xvii) undergoing statin therapy for treatment of hypercholesterolemia and who had reported suffering from varying levels of muscular pain and fatigue. This study is ongoing but the results below follow the study in relation to these patients for varying periods, from day 0 (T0d) up to a maximum of 56 days (T56d).
(§2) The design of the clinical trial involves a blood sample being taken from the patients prior to commencing medication administration and then on four further occasions during the 13 week trial, at around days 13-16, days 26-30, days 35-60 and finally at days 80-90. Patients were also required to submit answers to a questionnaire on approximately a weekly basis to enable patients to be scored for pain using the McGill Pain Questionnaire (Melzack, R., 1975 “The McGill Pain Questionnaire: Major Properties and Scoring Methods”. Pain 1:277-299, the disclosure of which is included herein in its entirety by way of reference) scales for Pain Rating Index (PRI) and Present Pain Intensity (PPI). In the PRI index, which comprises two scores, higher scores indicate increasing levels of pain. In the PPI index present pain is given a score of 0 to 5, where 0 represents no pain and 5 represents excruciating pain. Patients were also scored prior to commencement of the trial medication for fatigue using the Fatigue Impact Scale (Fisk, J. D. et al, 1994, “Measuring the functional impact of fatigue: Initial Validation of the Fatigue Impact Scale”, Clinical Infectious Disease, 18 (Suppl 1):S79-83, the disclosure of which is included herein in its entirety by way of reference). On the first week at the clinic, prior to commencement of the trial medication, details of the patients' statin medication were recorded and daily doses noted.
(§3) After the pre-trial medication blood samples and questionnaires were taken (T0d) patients commenced taking daily doses of 1600 mg of magnesium orotate, administered as 2×400 mg tablets, morning and evening.
(§4) A preliminary statistical analysis of the results of the PRI, PPI and FIS tests for the patients on the trial as a group are presented in Table 3, below.

[1] = system: statin induced muscle pain; experiment: Pilot clinical study: McGill Pain Questionnaire scores (PRI, PPI) in statin patients given magnesium orotate; set-up: key to PRI—Pain Rating Index: McGill PRI; higher scores = more pain; settings: for PPI—Present Pain Intensity: score 0 to 5; for PPI—Present Pain Intensity / PRI—Pain Rating Index: 1600 mg/day magnesium orotate
From the text: as §1, §2, §3, §4

[2] = Pilot clinical study: monitoring of blood serum components
From the text: as §2, §3
Blood samples were taken prior to commencement of trial medication (T0d) and after approximately 14 (T14d), 28 (T28d), 42 (T42d) and 56 (T56d) days to determine individual to baseline levels of uridine (μg/ml) arising from magnesium orotate (MgOr) administration, to thereby monitor patient compliance. Blood samples taken were also used to determine creatine kinase concentration (CK) (units/L), gamma glutaryl transferase (GGT) concentration, aspartate amino transferase (AST) concentration and alanine aminotransferase concentration (ALT) (units/L), as well as serum lipid levels including total cholesterol concentration, high density lipoprotein (HDL-CHOL) concentration, low density lipoprotein (LDL-CHOL) concentration, tryglyceride (TRIG) concentration and levels of other serum components routinely tested for including magnesium ion concentration.

[3] = most patients undergoing the magnesium orotate therapy
[4] = patients within the normal ranges at commencement of the trial

magnesium orotate
FIS—Fatigue Impact Scale (statin induced fatigue; T7d, baseline in T0d): 0 and 19 and 9 and 23 and 88 and 7 and 24 and 17 and 101 and 5 and 47 and 77 and 44 and 40 and 6 and 21
FIS—Fatigue Impact Scale (statin induced fatigue; T14d): 0 and 38 and 25 and 86 (2×) and 9 (3×) and 32 and 49 and 3 and 48 and 31 and 11 and 21
FIS—Fatigue Impact Scale (statin induced fatigue; T21d): 0 and 19 and 18 and 39 and 92 and 4 and 30 and 8 and 91 and 10 and 67 and 21 and 3
FIS—Fatigue Impact Scale (statin induced fatigue; T28d): 0 and 22 and 51 and 1 and 7 and 77 and 9 and 50
FIS—Fatigue Impact Scale (statin induced fatigue; T35d): 0 and 22
FIS—Fatigue Impact Scale (statin induced fatigue; T42d): 0 and 13
FIS—Fatigue Impact Scale (statin induced fatigue; T49d): 0
FIS—Fatigue Impact Scale (statin induced fatigue; T56d): 0
FIS fatigue score (statin induced fatigue; [3]): significant improvements
PPI—Present Pain Intensity ([1]; T7d, baseline in T0d): 2 (4×) and 1 (9×) and 0 (3×)
PRI—Pain Rating Index ([1]; T14d): 9 (2×) and 8 and 28 and 16 and 23 and 42 and 4 and 7 and 15 and 37 and 2 and 3 and 0 and 6
PPI—Present Pain Intensity ([1]; T14d): 2 (6×) and 1 (9×)
PRI—Pain Rating Index ([1]; T21d): 9 (2×) and 8 (2×) and 24 and 13 and 15 and 42 and 2 and 35 and 0 and 3 and 12
PPI—Present Pain Intensity ([1]; T21d): 2 (5×) and 1 (7×) and 0
PRI—Pain Rating Index ([1]; T28d): 2 (3×) and 3 (2×) and 11 and 4 and 0
PPI—Present Pain Intensity ([1]; T28d): 1 (4×) and 0 (3×) and 2
PRI—Pain Rating Index ([1]; T35d): 0
PPI—Present Pain Intensity ([1]; T35d): 0
PRI—Pain Rating Index ([1]; T42d): 0
PPI—Present Pain Intensity ([1]; T42d): 0
PRI—Pain Rating Index ([1]; T49d): 0
PPI—Present Pain Intensity ([1]; T49d): 0
PRI—Pain Rating Index ([1]; T56d): 0
PPI—Present Pain Intensity ([1]; T56d): 0
PRI and PPI pain scores [1, 3]: significant improvements
serum uridine concentration ([2]; all patients on the trial, data not presented): increase
GGT serum concentration ([2]; day 43, only patient significantly outside normal range at commencement, dropped from 96 U/L at day 0): 83 U/L
AST serum concentration ([2]; day 43, same patient, dropped from 56 U/L at commencement): 42 U/L
ALT serum concentration ([2]; day 43, same patient, dropped from 105 U/L at commencement): 74 U/L
alanine amino transferase (ALT) serum concentration [2, 4]: no significant impact
aspartate amino transferase (AST) serum concentration [2, 4]: no significant impact
gamma glutaryl transferase (GGT) serum concentration [2, 4]: no significant impact
serum creatine kinase concentration (CK) [2, 4]: no significant impact
